In PMC6759758, “Cofactor Selectivity in Methylmalonyl Coenzyme A Mutase, a Model Cobamide-Dependent Enzyme” (mBio, 2019):

What was measured:
[1] = system: S. meliloti cobD::gus Gm^r metH::Tn5 ΔnrdJ pMS03-nrdABEc^+; assay: MCM-dependent growth of S. meliloti on isoleucine/valine; assay type: cell-based, Sinorhizobium meliloti; settings: for EC50 fold higher than CNCbl: MCM-dependent growth; for EC50: OD600 at 145 h, L-isoleucine and L-valine as sole carbon sources, average and SD for five or more biological replicates, read-out: EC50 (concentration required to achieve half of the maximal OD600)
Procedure: Because nrdJ is essential, the E. coli cobamide-independent ribonucleotide reductase encoded by nrdA and nrdB was expressed from the pMS03 plasmid ([143]). The strain was precultured in M9 medium ([144]) (modified concentration of MgSO4: 1 mM) containing 0.1% sucrose, 2 g/liter isoleucine, 2 g/liter valine, 1 g/liter methionine, and 20 μg/ml gentamicin, with shaking at 30°C. After 2 days, cells were washed and diluted to an OD600 of 0.02 into M9 medium containing 4 g/liter isoleucine, 4 g/liter valine, 1 g/liter methionine, 20 μg/ml gentamicin, and cobamides at various concentrations as indicated for each experiment, in 384-well plates. The plates were incubated at 30°C for 145 h in a BioTek Synergy 2 plate reader with linear shaking at 1,140 cpm. OD600 was measured in 1-h increments.

VpMCM (V. parvula MCM) = VpMCM (V. parvula MCM) (Veillonella parvula, UniProt A0A124EFR6); assay: Fluorescence binding assay, VpMCM; settings: fitted curve, error = standard error of the curve fit; equimolar α and β subunits
Procedure: The α subunit of VpMCM (encoded by Vpar_RS09005) was expressed with an N-terminal 6×His tag from the pET-Duet expression vector in E. coli BL21(DE3). Protein expression was induced with 520 μM IPTG for 6 h at 30°C. The protein was batch purified by nickel affinity and subsequently purified by FPLC using a HiTrapQ column with an NaCl gradient from 50 to 500 mM in […], pH 8.0, 10% glycerol. The β subunit of VpMCM (encoded by Vpar_RS09000) was expressed separately with an N-terminal 6×His tag from the pET-Duet expression vector in E. coli BL21(DE3). […] Purified protein was dialyzed into 25 mM Tris-HCl, pH 8.0, 300 mM NaCl, 10% glycerol, and 1 mM β-mercaptoethanol. Concentration of pure α and β subunits (Fig. S7) was determined by absorbance at 280 nm (A280) using the theoretically calculated extinction coefficients 75,290 M^−1 cm^−1 and 74,260 M^−1 cm^−1, respectively ([125]). Equimolar amounts of α and β subunits were combined during the setup of fluorescence binding assays.
(§1) All steps involving cobamides were conducted in the dark. The plate was centrifuged for 1 min at 3,800 rpm to level the surface of the liquid in each well. The plate was then incubated for 40 min at 30°C to allow binding, with a brief shaking step after 30 min. […] Following incubation, fluorescence emission at 340 nm (5-nm slit width) was measured upon excitation at 282 nm (5-nm slit width) using a Tecan Infinite M1000 Pro plate reader. Fluorescence, normalized to the initial value, was plotted as a function of cobamide concentration, and fitted to the following equation ([134]): F/F0=1+ΔFmax/F0([E]+[L]+Kd)−([E]+[L]+Kd)^2−4[E][L]/2[E] where F is fluorescence, F0 is initial fluorescence, [E] is total enzyme concentration, [L] is total ligand concentration, and Kd is the binding dissociation constant.

[2] = target: T1, SmMCM (methylmalonyl-CoA mutase from S. meliloti) (Rhizobium meliloti, UniProt O86028); assay: biochemical; assay type: binding, Sinorhizobium meliloti; settings: SmMCM 0.2 μM, pH 7.5, 30°C; average and standard deviation for three or more independent experiments; n. d. = binding too weak to determine Kd
T1 construct: made in house; host or cells: E. coli BL21(DE3)pLysS
T1 sequence (O86028 2-712): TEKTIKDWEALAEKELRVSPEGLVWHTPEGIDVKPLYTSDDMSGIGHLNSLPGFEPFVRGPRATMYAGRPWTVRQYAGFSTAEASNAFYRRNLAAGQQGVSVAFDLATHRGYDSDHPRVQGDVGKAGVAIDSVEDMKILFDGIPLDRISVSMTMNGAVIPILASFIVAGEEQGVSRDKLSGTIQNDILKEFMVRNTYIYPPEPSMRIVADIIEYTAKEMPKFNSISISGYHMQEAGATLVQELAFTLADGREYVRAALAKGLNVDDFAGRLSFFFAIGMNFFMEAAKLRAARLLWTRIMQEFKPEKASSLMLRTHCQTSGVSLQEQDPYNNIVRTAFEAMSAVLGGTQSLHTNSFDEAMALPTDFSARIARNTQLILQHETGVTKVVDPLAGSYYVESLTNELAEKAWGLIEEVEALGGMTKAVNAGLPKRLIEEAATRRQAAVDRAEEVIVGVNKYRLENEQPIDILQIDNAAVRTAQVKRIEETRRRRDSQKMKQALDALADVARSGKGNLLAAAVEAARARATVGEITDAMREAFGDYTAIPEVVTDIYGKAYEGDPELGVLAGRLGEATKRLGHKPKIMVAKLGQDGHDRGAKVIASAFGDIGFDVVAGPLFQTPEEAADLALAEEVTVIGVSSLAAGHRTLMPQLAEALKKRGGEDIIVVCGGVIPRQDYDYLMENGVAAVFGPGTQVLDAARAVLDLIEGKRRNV
Procedure: as §1

EcMCM (E. coli MCM) = target: T2, EcMCM (E. coli MCM) (Escherichia coli, UniProt P27253); assay: Fluorescence binding assay, EcMCM; settings: read-out: Kd EcMCM; fitted curve, error = standard error of the curve fit
T2 construct: 6xHis (N); made in house; host or cells: E. coli BL21(DE3)
Procedure: as §1

[3] = target: T3, SmMCM (Sinorhizobium meliloti MCM) (Rhizobium meliloti, UniProt O86028); assay: Thiokinase-coupled spectrophotometric MCM activity assay; assay type: biochemical; settings: SmMCM 50 nM reconstituted with 2 μM cobamide; (R)-methylmalonyl-CoA to succinyl-CoA, steady state, 30°C
T3 construct: made in house; host or cells: E. coli BL21(DE3)pLysS
T3 sequence (O86028 2-712): T1 sequence (O86028 2-712)
Procedure: Final concentrations of reagents in the assays were as follows: Tris-phosphate buffer (pH 7.5), 100 mM Tris, 50 mM phosphate; dithionitrobenzoate (DTNB), 400 μM; ADP, 1 mM; MgCl2, 10 mM; (R)-methylmalonyl-CoA, 0 to 4 mM; thiokinase, 5 μM; MCM, 50 nM; and cobamides, 2 μM.
Three separate mixes were prepared, all in 1× Tris-phosphate buffer: an assay mix containing DTNB, ADP, and MgCl2; a substrate mix containing (R)-methylmalonyl-CoA; and an enzyme mix containing thiokinase, MCM, and cobamides. All steps involving cobamides were conducted in the dark. The assay and enzyme mixes were prepared as a master mix and aliquoted into 96-well plates; substrate mixes were prepared in individual wells, in triplicate. All components were incubated at 30°C for 40 min to equilibrate temperature and allow prebinding of cobamides and MCM. After incubation, one replicate at a time, the substrate mix was added to the assay mix, followed by the enzyme mix. Absorbance at 412 nm (A412) was recorded immediately after addition of enzyme and for 1 to 3 min, every 3 s, on a BioTek Synergy 2 plate reader. The increase in A412 in reaction mixtures lacking substrate was subtracted from all readings, to account for reactivity of DTNB with thiols on protein surfaces.

MCM = system: MCM; set-up: method as in PMID 14235521; settings: cited from earlier work

Sequence of VpMCM (V. parvula MCM) (A0A124EFR6 entry or part of it): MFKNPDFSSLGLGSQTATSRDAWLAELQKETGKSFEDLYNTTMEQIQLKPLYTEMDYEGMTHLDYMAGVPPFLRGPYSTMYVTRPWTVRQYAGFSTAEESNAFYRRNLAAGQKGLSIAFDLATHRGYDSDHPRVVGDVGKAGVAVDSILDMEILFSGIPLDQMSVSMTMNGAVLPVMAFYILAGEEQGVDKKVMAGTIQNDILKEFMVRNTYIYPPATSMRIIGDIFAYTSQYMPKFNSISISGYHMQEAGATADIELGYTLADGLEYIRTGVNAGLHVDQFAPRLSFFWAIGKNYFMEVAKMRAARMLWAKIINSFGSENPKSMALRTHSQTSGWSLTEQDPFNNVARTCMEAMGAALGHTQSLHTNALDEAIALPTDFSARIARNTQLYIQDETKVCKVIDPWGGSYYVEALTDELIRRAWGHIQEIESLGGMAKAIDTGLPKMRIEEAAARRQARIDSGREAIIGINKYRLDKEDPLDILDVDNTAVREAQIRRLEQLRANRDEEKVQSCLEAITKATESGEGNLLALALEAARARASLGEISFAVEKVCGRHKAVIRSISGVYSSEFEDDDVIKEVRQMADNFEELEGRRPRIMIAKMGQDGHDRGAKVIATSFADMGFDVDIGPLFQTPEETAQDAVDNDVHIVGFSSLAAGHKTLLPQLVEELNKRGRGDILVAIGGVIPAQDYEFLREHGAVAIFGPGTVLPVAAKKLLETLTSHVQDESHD
T2 sequence (P27253 whole entry): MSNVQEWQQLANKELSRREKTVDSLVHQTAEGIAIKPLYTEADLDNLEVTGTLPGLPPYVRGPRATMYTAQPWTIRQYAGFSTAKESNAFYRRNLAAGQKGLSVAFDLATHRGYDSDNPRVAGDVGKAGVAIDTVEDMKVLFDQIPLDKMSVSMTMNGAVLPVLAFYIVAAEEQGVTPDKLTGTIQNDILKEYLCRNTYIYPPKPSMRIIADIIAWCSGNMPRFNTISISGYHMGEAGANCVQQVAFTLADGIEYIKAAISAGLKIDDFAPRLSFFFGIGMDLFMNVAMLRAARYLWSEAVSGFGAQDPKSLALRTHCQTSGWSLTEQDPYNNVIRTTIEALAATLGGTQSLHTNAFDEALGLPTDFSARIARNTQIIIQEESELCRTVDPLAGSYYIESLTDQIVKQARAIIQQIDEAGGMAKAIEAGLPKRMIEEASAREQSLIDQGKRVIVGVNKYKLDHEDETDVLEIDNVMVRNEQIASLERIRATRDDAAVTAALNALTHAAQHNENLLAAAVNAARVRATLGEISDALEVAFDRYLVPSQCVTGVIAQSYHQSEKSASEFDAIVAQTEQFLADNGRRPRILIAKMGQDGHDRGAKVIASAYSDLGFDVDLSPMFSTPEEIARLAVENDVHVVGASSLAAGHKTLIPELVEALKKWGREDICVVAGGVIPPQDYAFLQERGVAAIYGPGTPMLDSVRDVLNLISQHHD

Molecule	EC50 [1] [nM]	Kd [2] [nM]	further results
2-Methyladeninylcobamide [CN[2-MeAde]Cba]	24 ± 9		EC50 fold higher than CNCbl [1]: 5 fold
5-Hydroxybenzimidazolylcobamide [CN[5-OHBza]Cba]	400 ± 100		
C/C1=C2/[N-][C@H]([C@H](CC(N)=O)[C@@]2(C)CCC(=O)NC[C@@H](C)OP(=O)([O-])O[C@H]2[C@@H](O)[C@@H](n3cnc4nc(C)nc(N)c43)O[C@@H]2CO)[C@]2(C)N=C(/C(C)=C3N=C(/C=C4N=C1[C@@H](CCC(N)=O)C\4(C)C)[C@@H](CCC(N)=O)[C@]\3(C)CC(N)=O)[C@@H](CCC(N)=O)[C@]2(C)CC(N)=O.[CH2-][C@H]1O[C@@H](n2cnc3c(N)ncnc32)[C@H](O)[C@@H]1O.[Co+3] [Ado[2-MeAde]Cba, 2-Methyladeninylcobamide]		1700 ± 700	Kd (VpMCM (V. parvula MCM)): 1500 ± 200 nM; Kd (EcMCM (E. coli MCM)): 350 ± 40 nM
C/C1=C2/[N-][C@H]([C@H](CC(N)=O)[C@@]2(C)CCC(=O)NC[C@@H](C)OP(=O)([O-])O[C@H]2[C@@H](O)[C@@H](n3cnc4cc(C)ccc43)O[C@@H]2CO)[C@]2(C)N=C(/C(C)=C3N=C(/C=C4N=C1[C@@H](CCC(N)=O)C\4(C)C)[C@@H](CCC(N)=O)[C@]\3(C)CC(N)=O)[C@@H](CCC(N)=O)[C@]2(C)CC(N)=O.[CH2-][C@H]1O[C@@H](n2cnc3c(N)ncnc32)[C@H](O)[C@@H]1O.[Co+3] [Ado[5-MeBza]Cba, 5-Methylbenzimidazolylcobamide]		100 ± 40	kcat [3]: 12.8 ± 0.5 s⁻¹
C/C1=C2/[N-][C@H]([C@H](CC(N)=O)[C@@]2(C)CCC(=O)NC[C@@H](C)OP(=O)([O-])O[C@H]2[C@@H](O)[C@@H](n3cnc4cccc(N)c43)O[C@@H]2CO)[C@]2(C)N=C(/C(C)=C3N=C(/C=C4N=C1[C@@H](CCC(N)=O)C\4(C)C)[C@@H](CCC(N)=O)[C@]\3(C)CC(N)=O)[C@@H](CCC(N)=O)[C@]2(C)CC(N)=O.[CH2-][C@H]1O[C@@H](n2cnc3c(N)ncnc32)[C@H](O)[C@@H]1O.[Co+3] [Ado[7-AmBza]Cba, 7-Aminobenzimidazolylcobamide]		700 ± 100	
C/C1=C2/[N-][C@H]([C@H](CC(N)=O)[C@@]2(C)CCC(=O)NC[C@@H](C)OP(=O)([O-])O[C@H]2[C@@H](O)[C@@H](n3cnc4cccc(C)c43)O[C@@H]2CO)[C@]2(C)N=C(/C(C)=C3N=C(/C=C4N=C1[C@@H](CCC(N)=O)C\4(C)C)[C@@H](CCC(N)=O)[C@]\3(C)CC(N)=O)[C@@H](CCC(N)=O)[C@]2(C)CC(N)=O.[CH2-][C@H]1O[C@@H](n2cnc3c(N)ncnc32)[C@H](O)[C@@H]1O.[Co+3] [Ado[7-MeBza]Cba, 7-Methylbenzimidazolylcobamide]		100 ± 20	
C/C1=C2/[N-][C@H]([C@H](CC(N)=O)[C@@]2(C)CCC(=O)NC[C@@H](C)OP(=O)([O-])O[C@H]2[C@@H](O)[C@@H](n3cnc4ccccc43)O[C@@H]2CO)[C@]2(C)N=C(/C(C)=C3N=C(/C=C4N=C1[C@@H](CCC(N)=O)C\4(C)C)[C@@H](CCC(N)=O)[C@]\3(C)CC(N)=O)[C@@H](CCC(N)=O)[C@]2(C)CC(N)=O.[CH2-][C@H]1O[C@@H](n2cnc3c(N)ncnc32)[C@H](O)[C@@H]1O.[Co+3] [Ado[Bza]Cba, Benzimidazolylcobamide]		400 ± 200	Kd (VpMCM (V. parvula MCM)): 1400 ± 300 nM; Kd (EcMCM (E. coli MCM)): 1800 ± 200 nM; MCM activity in S. meliloti bacteroids (MCM): intermediate
C/C1=C2/[N-][C@H]([C@H](CC(N)=O)[C@@]2(C)CCC(=O)NC[C@@H](C)OP(=O)([O-])O[C@H]2[C@@H](O)[C@@H](Oc3ccc(C)cc3)O[C@@H]2CO)[C@]2(C)N=C(/C(C)=C3N=C(/C=C4N=C1[C@@H](CCC(N)=O)C\4(C)C)[C@@H](CCC(N)=O)[C@]\3(C)CC(N)=O)[C@@H](CCC(N)=O)[C@]2(C)CC(N)=O.[CH2-][C@H]1O[C@@H](n2cnc3c(N)ncnc32)[C@H](O)[C@@H]1O.[Co+3] [Ado[Cre]Cba, para-Cresolylcobamide]		50 ± 10	Kd (VpMCM (V. parvula MCM)): 1300 ± 100 nM; Kd (EcMCM (E. coli MCM)): 620 ± 90 nM; kcat [3]: 15 ± 1 s⁻¹
C/C1=C2/[N-][C@H]([C@H](CC(N)=O)[C@@]2(C)CCC(=O)NC[C@@H](C)OP(=O)([O-])O[C@H]2[C@@H](O)[C@@H](Oc3ccccc3)O[C@@H]2CO)[C@]2(C)N=C(/C(C)=C3N=C(/C=C4N=C1[C@@H](CCC(N)=O)C\4(C)C)[C@@H](CCC(N)=O)[C@]\3(C)CC(N)=O)[C@@H](CCC(N)=O)[C@]2(C)CC(N)=O.[CH2-][C@H]1O[C@@H](n2cnc3c(N)ncnc32)[C@H](O)[C@@H]1O.[Co+3] [Ado[Phe]Cba, Phenolylcobamide]		200 ± 30	Kd (VpMCM (V. parvula MCM)): 5000 ± 1000 nM; Kd (EcMCM (E. coli MCM)): 1300 ± 200 nM; kcat [3]: 8.3 ± 0.4 s⁻¹
C#N.C/C1=C2/N[C@H]([C@H](CC(N)=O)[C@@]2(C)CCC(=O)NC[C@@H](C)OP(=O)(O)O[C@H]2[C@@H](O)[C@@H](n3cnc4ncnc(N)c43)O[C@@H]2CO)[C@]2(C)N=C(/C(C)=C3N=C(/C=C4N=C1[C@@H](CCC(N)=O)C\4(C)C)[C@@H](CCC(N)=O)[C@]\3(C)CC(N)=O)[C@@H](CCC(N)=O)[C@]2(C)CC(N)=O.[Co] [CN[Ade]Cba, Adeninylcobamide]	350 ± 90		
Benzimidazolylcobamide [CN[Bza]Cba]	27 ± 7		EC50 fold higher than CNCbl [1]: 5 fold
Phenolylcobamide [CN[Phe]Cba]	400 ± 100		
Purinylcobamide [CN[Pur]Cba]	600 ± 200		
cyanocobalamin [CNCbl, reference compound]	5 ± 1		
para-Cresolylcobamide [CN[Cre]Cba]	700 ± 100		
